The source of these data is patent US7449477B2, “7-phenyl-isoquinoline-5-sulfonylamino derivatives as inhibitors of akt (protein kinase B)” (Eli Lilly and Company, priority 2003, dated 2008).

What is called IC50 is the concentration needed to halve the response being measured.

The target of this assay is T1, active human Akt1 (Homo sapiens, UniProt P31749).
T1 construct: Active human recombinant Akt1 (full-length) purified from Sf9 insect cells; purchased Upstate Biotechnology, Inc. 14-276; host or cells: Sf9 insect cells
T1 sequence (P31749 whole entry): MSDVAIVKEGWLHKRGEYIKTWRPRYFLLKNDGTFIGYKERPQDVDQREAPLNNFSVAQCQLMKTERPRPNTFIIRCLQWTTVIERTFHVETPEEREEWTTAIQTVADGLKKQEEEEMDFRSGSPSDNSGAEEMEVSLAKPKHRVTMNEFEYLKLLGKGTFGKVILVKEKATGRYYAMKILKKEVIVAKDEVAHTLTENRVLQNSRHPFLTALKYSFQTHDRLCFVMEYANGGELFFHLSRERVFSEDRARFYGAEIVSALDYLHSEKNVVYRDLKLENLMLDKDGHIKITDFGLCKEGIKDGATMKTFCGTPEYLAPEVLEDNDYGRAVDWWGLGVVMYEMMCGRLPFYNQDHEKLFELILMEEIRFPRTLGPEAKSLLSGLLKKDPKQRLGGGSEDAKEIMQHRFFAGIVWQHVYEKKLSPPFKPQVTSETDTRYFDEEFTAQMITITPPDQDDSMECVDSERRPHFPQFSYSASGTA
In words: Akt1 Phosphorylation Assay (phosphocellulose filter-binding, 33P-Crosstide). Type of assay: biochemical. The note with it: active human recombinant Akt1 (full-length) 10 nM; 12.5 μM Crosstide; 20 μM ATP; 30 minutes at room temperature. As to the method: Akt1 Phosphorylation Assay
The assay described measures the phosphorylation of Crosstide by active human Akt1 and other Akt isoforms. Crosstide contains a consensus sequence derived from Akt substrates GSK3b and forkhead transcription factors (FKs). The ^33P-labeled Crosstide substrate is captured by phosphocellulose membrane filter plates.
Active human recombinant Akt1 (full-length) purified from Sf9 insect cells is from Upstate Biotechnology, Inc. (Cat. #14-276, 405 μg/ml). Crosstide substrate, NH2-GRPRTSSFAEG-COOH (M.W.1164) is purchased from Multiple Peptide System (Cat. # L59/GR145-153).
Solution (A): 20% DMSO (dimethylsulphoxide) or Compound in 20% DMSO; Solution (B): Assay Buffer Mix: 31.25 μM Crosstide, 37.5 mM MgCl2, 87.5 mM HEPES, pH 7.3, 50 μM ATP γ-^33P-ATP, 0.05 μCi/μl; Solution (C): Akt Kinase Mix: 31.25 mM HEPES, pH 7.3; 1 mM DTT, 25 nM UBI Akt1.
Procedure for Phosphocellulose Filter-Binding Assay
Ten μl of Solution (A) are first mixed with 20 μl Solution (B). The enzymatic reaction is initiated by adding 20 μl Solution (C) to the mixture. (Final concentration or amount in a 50-μl reaction mix: 4% DMSO or various compound concentration in 4% DMSO; 12.5 μM Crosstide; 15 mM MgCl2; 35 mM HEPES, pH7.3; 20 μM ATP; 1 μCi γ-^33P-ATP; 0.4 mM DTT; 10 nM UBI Akt1.) The reactions are performed in 96-well microtiter plates.
After 30 minutes at room temperature, the reaction is terminated by adding 80 μl of 10% H3PO4. An aliquot of 100 μl from each well is transferred to the phosphocellulose filter plate (Millipore MultiScreen, Catalog #MAPHN0B50). After 30 minutes, the reaction mix is filtered with a Millipore manifold following by 3 washes with 0.5% H3PO4. The filter is then vacuum-dried and the plate is fitted onto a Packard carrier. 100 μl/well Microscint20 are added and the contents are counted in a Packard Top Count.

Counter-ions that a name gives are not always drawn. Bounds are passed on as bounds.

With `O=[N+]([O-])c1ccc([C@H](O)CCNCCNS(=O)(=O)c2cc(-c3ccccc3)cc3cnccc23)cc1` [Example 81, (R)-7-Phenyl-isoquinoline-5-sulfonic acid [2-(3-hydroxy-3-(4-nitrophenyl)-propylamino)-ethyl]-amide, mesylate salt], the IC50 is not above 2000 nM.
On to `O=S(=O)(NCCNCCCc1ccc(F)cc1F)c1cc(-c2ccccc2)cc2cnccc12` [Example 70, 7-Phenyl-isoquinoline-5-sulfonic acid {2-[3-(2,4-difluorophenyl)-propylamino]-ethyl}-amide, dihydrochloride salt], for which the IC50 is not above 2000 nM.
With `O=[N+]([O-])c1ccc(CCCNCCNS(=O)(=O)c2cc(-c3ccccc3)cc3cnccc23)cc1O` [Example 105, 7-Phenyl-isoquinoline-5-sulfonic acid {2-[3-(3-hydroxy-4-nitro-phenyl)-propylamino]-ethyl}-amide, dihydrochloride salt], the IC50 is not above 2000 nM.
For `N#Cc1ccc(C(O)C(O)CNCCNS(=O)(=O)c2cc(-c3ccccc3)cc3cnccc23)cc1` (stereo not shown) [Example 112, 7-Phenyl-isoquinoline-5-sulfonic acid {2-[3-(4-cyano-phenyl)-2,3-dihydroxy-propylamino]-ethyl}-amide, dihydrochloride salt], the IC50 is not above 2000 nM.
On to `CS(=O)(=O)Nc1cccc(-c2cc(S(=O)(=O)NCCNCCCc3ccc([N+](=O)[O-])cc3)c3ccncc3c2)c1` [Example 94, 7-(3-methanesulfonylamino-phenyl)-isoquinoline-5-sulfonic acid {2-[3-(4-nitro-phenyl)-propylamino]-ethyl}-amide, dihydrochloride salt], for which the IC50 was not above 2000 nM.
For `COc1cccc(CCCNCCNS(=O)(=O)c2cc(-c3ccccc3)cc3cnccc23)c1` [Example 31, 7-Phenyl-isoquinoline-5-sulfonic acid {2-[3-(3-methoxyphenyl)-propylamino]-ethyl}-amide, dihydrochloride salt], the IC50 was not above 2000 nM.
Regarding `CCc1cc([N+](=O)[O-])ccc1CCCNCCNS(=O)(=O)c1cc(-c2ccccc2)cc2cnccc12` [Example 103, 7-Phenyl-isoquinoline-5-sulfonic acid {2-[3-(2-ethyl-4-nitro-phenyl)-propylamino]-ethyl}-amide, dihydrochloride salt], the IC50 was not above 2000 nM.
With `O=S(=O)(NCCNCCCc1ccc(F)cc1-c1ccccc1)c1cc(-c2ccccc2)cc2cnccc12` [Example 36, 7-Phenyl-isoquinoline-5-sulfonic acid {2-[3-(5-fluoro-biphenyl-2-yl)-propylamino]-ethyl}-amide, dihydrochloride salt] the figure was not above 2000 nM; with `O=S(=O)(NCCNCCCc1ccc(OC(F)F)cc1)c1cc(-c2ccccc2)cc2cnccc12` [Example 30, 7-Phenyl-isoquinoline-5-sulfonic acid {2-[3-(4-difluoromethoxy-phenyl)-propylamino]-ethyl}-amide, dihydrochloride salt], not above 2000 nM.
`Nc1ccc(CCCNCCNS(=O)(=O)c2cc(-c3ccccc3)cc3cnccc23)cc1` [Example 72, 7-Phenyl-isoquinoline-5-sulfonic acid [2-(3-(4-aminophenyl)-propylamino)-ethyl]-amide, dihydrochloride salt]: the 50% inhibitory concentration (IC50) was not above 2000 nM.
For the molecule `O=S(=O)(NCCNCCCc1ccc(Cl)cc1N1CCNCC1)c1cc(-c2ccccc2)cc2cnccc12` [Example 44, 7-Phenyl-isoquinoline-5-sulfonic acid {2-[3-(4-chloro-2-piperazin-1-yl-phenyl)-propylamino]-ethyl}-amide, tetrahydrochloride salt], the IC50 is not above 2000 nM.
As for `CC(=O)Nc1ccc(CCCNCCNS(=O)(=O)c2cc(-c3ccccc3)cc3cnccc23)cc1` [Example 28, 7-Phenyl-isoquinoline-5-sulfonic acid {2-[3-(4-acetamidophenyl)-propylamino]-ethyl}-amide, dihydrochloride salt], the half-maximal inhibitory concentration (IC50) was not above 2000 nM.
Regarding `O=C(Nc1ccc(CCCNCCNS(=O)(=O)c2cc(-c3ccccc3)cc3cnccc23)cc1)C1CC1` [Example 25, 7-Phenyl-isoquinoline-5-sulfonic acid {2-[3-(4-(cyclopropyl-carbonylamino)phenyl)-propylamino]-ethyl}-amide, dihydrochloride salt], the IC50 is not above 2000 nM.
The value for `N#Cc1ccc(C(O)CCNCCNS(=O)(=O)c2cc(-c3ccccc3)cc3cnccc23)cc1` (stereo not shown) [Example 75, 7-Phenyl-isoquinoline-5-sulfonic acid [2-(3-hydroxy-3-(4-cyanophenyl)-propylamino)-ethyl]-amide, dihydrochloride salt] was not above 2000 nM; that for `COc1ccc(CCCNCCNS(=O)(=O)c2cc(-c3ccc(O)cc3)cc3cnccc23)c(F)c1` [Example 108, 7-(4-Hydroxy-phenyl)-isoquinoline-5-sulfonic acid {2-[3-(2-fluoro-4-methoxy-phenyl)-propylamino]-ethyl}-amide] was not above 2000 nM; that for `CCCNS(=O)(=O)c1ccc(CCCNCCNS(=O)(=O)c2cc(-c3ccccc3)cc3cnccc23)cc1` [Example 21, 7-Phenyl-isoquinoline-5-sulfonic acid {2-[3-(4-(N-propylamino-sulfonyl)phenyl)-propylamino]-ethyl}-amide, dihydrochloride salt] was not above 2000 nM.
As for `O=[N+]([O-])c1ccc(C(O)C(O)CNCCNS(=O)(=O)c2cc(-c3ccccc3)cc3cnccc23)cc1` (single isomer, unassigned; isomer 1) [Example 88, 7-Phenyl-isoquinoline-5-sulfonic acid [2-(2,3-dihydroxy-3-(4-nitrophenyl)-propylamino)-ethyl]-amide isomer 1, dihydrochloride salt], the IC50 was not above 2000 nM.
The value for `O=[N+]([O-])c1ccc(CC(O)CNCCNS(=O)(=O)c2cc(-c3ccccc3)cc3cnccc23)cc1` (racemic) [Example 83, 7-Phenyl-isoquinoline-5-sulfonic acid [2-(2-hydroxy-3-(4-nitrophenyl)-propylamino)-ethyl]-amide, dihydrochloride salt] was not above 2000 nM.
In the case of `N#Cc1ccc(CC(O)CNCCNS(=O)(=O)c2cc(-c3ccccc3)cc3cnccc23)cc1` (stereo not shown) [Example 111, 7-Phenyl-isoquinoline-5-sulfonic acid {2-[3-(4-cyano-phenyl)-2-hydroxy-propylamino]-ethyl}-amide, dihydrochloride salt, dihydrochloride salt, dihydrochloride salt, dihydrochloride …], the IC50 is not above 2000 nM.
Take `O=[N+]([O-])c1ccc(CCCNCCNS(=O)(=O)c2cc(-c3cccc(O)c3)cc3cnccc23)cc1` [Example 99, 7-(3-hydroxy-phenyl)-isoquinoline-5-sulfonic acid {2-[3-(4-nitro-phenyl)-propylamino]-ethyl}-amide, dihydrochloride salt]: the IC50 was not above 2000 nM.
On to `Nc1ccc(-c2cc(S(=O)(=O)NCCNCCCc3ccc([N+](=O)[O-])cc3)c3ccncc3c2)cc1` [Example 90, 7-(4-aminophenyl)-isoquinoline-5-sulfonic acid [2-(3-(4-nitrophenyl)-propylamino)-ethyl]-amide, trihydrochloride salt], for which the IC50 was not above 2000 nM.
Regarding `O=[N+]([O-])c1ccc(CCCNCCNS(=O)(=O)c2cc(-c3ccccc3)cc3cnccc23)cc1` [Example 3, 7-Phenyl-isoquinoline-5-sulfonic acid {2-[3-(4-nitrophenyl)-propylamino]-ethyl}-amide, dihydrochloride salt], the IC50 was not above 2000 nM.
With `CN1CCC(Oc2cc(Cl)ccc2CCCNCCNS(=O)(=O)c2cc(-c3ccccc3)cc3cnccc23)C1` (stereo not shown) [Example 55, 7-Phenyl-isoquinoline-5-sulfonic acid {2-[3-(4-chloro-2-(1-methyl-pyrrolidin-3-yl)oxy-phenyl)-propylamino]-ethyl}-amide, trihydrochloride salt] the figure was not above 2000 nM; with `O=[N+]([O-])c1ccc(C(O)C(O)CNCCNS(=O)(=O)c2cc(-c3ccccc3)cc3cnccc23)cc1` (stereo not shown) [Example 87, 7-Phenyl-isoquinoline-5-sulfonic acid [2-(2,3-dihydroxy-3-(4-nitrophenyl)-propylamino)-ethyl]-amide, dihydrochloride salt], not above 2000 nM; with `O=[N+]([O-])c1ccc(CCCNCCNS(=O)(=O)c2cc(-c3ccccc3)cc3cnccc23)c(Cl)c1` [Example 38, 7-Phenyl-isoquinoline-5-sulfonic acid {2-[3-(2-chloro-4-nitrophenyl)-propylamino]-ethyl}-amide, dihydrochloride salt], not above 2000 nM.
